Reference: patent US10344060B2 (priority 2013, dated 2019)
Like-named read-outs stand apart in the source and are kept apart here.

Molecular target: hNav1.7 (Homo sapiens, UniProt Q15858)
Test: cell-based
Type: cell-based
Conditions: for IC50: read-out: PX hNav1.7 Tonic IC50; for Nav1.4/Nav1.7 / Nav1.5/Nav1.7: ratio of PX tonic IC50 values, Table 11
[1] = Table 12, PatchXpress, tonic block

Chain of hNav1.7 (Q15858 whole entry): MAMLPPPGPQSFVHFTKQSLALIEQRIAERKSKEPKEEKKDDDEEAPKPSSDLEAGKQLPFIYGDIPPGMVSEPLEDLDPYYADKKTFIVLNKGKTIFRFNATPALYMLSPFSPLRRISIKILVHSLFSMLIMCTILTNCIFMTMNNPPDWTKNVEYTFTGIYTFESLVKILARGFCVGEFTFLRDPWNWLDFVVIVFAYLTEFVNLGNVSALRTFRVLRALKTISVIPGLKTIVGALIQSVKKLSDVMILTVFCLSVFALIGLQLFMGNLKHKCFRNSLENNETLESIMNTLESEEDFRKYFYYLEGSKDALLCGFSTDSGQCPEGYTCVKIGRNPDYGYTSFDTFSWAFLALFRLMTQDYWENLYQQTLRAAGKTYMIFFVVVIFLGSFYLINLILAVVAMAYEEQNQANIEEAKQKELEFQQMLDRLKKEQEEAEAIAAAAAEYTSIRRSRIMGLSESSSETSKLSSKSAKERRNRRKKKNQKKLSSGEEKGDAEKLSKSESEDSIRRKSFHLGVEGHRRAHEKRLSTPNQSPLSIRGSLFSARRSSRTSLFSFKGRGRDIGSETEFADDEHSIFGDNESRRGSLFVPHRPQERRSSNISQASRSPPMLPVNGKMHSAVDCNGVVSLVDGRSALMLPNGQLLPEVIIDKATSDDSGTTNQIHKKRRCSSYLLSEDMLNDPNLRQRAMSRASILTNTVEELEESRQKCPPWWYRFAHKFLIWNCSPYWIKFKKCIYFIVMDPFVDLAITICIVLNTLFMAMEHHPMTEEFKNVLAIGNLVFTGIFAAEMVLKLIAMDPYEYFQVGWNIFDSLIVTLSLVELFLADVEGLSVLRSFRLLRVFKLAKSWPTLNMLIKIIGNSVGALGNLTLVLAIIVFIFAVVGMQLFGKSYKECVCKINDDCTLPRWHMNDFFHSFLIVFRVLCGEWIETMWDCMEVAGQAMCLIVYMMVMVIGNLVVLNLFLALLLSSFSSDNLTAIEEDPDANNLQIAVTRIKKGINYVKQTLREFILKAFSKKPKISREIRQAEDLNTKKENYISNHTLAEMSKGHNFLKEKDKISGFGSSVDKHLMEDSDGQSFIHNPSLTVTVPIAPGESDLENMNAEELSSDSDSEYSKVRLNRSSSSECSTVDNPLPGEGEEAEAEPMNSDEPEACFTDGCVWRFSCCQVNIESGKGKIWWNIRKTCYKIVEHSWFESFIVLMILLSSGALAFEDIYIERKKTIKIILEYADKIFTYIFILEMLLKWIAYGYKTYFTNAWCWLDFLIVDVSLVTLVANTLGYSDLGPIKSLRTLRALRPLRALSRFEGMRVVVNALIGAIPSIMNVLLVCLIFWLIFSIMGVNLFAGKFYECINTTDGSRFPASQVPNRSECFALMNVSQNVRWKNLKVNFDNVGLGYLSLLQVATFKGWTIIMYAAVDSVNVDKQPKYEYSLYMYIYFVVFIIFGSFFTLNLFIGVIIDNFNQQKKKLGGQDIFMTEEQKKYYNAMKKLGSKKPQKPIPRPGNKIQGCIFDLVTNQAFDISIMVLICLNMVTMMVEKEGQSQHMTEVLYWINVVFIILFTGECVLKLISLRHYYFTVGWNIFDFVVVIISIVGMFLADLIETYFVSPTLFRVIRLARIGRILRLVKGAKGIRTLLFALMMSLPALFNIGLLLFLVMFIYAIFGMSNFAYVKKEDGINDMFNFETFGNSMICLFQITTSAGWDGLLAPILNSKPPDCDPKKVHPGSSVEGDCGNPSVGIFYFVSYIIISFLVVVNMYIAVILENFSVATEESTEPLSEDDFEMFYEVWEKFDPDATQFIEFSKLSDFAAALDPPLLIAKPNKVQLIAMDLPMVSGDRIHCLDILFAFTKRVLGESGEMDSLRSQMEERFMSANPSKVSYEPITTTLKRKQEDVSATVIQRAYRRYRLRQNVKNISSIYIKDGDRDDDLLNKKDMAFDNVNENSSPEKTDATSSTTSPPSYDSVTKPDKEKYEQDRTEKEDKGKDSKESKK

| SMILES | IC50 [1] | Nav1.4/Nav1.7 | further results |
| --- | --- | --- | --- |
| C#CC[C@H](N)C(=O)N[C@@H](Cc1ccc(O)cc1)C(=O)N[C@H]1CSSC[C@@H]2NC(=O)[C@@H]3CSSC[C@@H](C(=O)N[C@@H](CCCNC(=N)N)C(=O)N[C@@H](CCCCN)C(=O)N[C@@H](CCC(=O)O)C(=O)N[C@H](C(=O)N[C@@H](CCC(=O)O)C(N)=O)[C@@H](C)CC)NC(=O)[C@H](Cc4c[nH]c5ccccc45)NC(=O)[C@H](CC(C)C)NC(=O)[C@H](CCCCN)NC(=O)[C@H](CSSC[C@H](NC(=O)[C@H]([C@@H](C)O)NC(=O)[C@H](Cc4c[nH]c5ccccc45)NC(=O)[C@H](CCCC)NC(=O)[C@H](Cc4c[nH]c5ccccc45)NC(=O)[C@H](CCCCN)NC(=O)[C@H](CCC(N)=O)NC1=O)C(=O)N[C@@H](CC(=O)O)C(=O)N[C@@H](CO)C(=O)N[C@@H](CCCCN)C(=O)N[C@@H](CCCNC(=N)N)C(=O)N[C@@H](C)C(=O)N3)NC(=O)[C@H](CCCNC(=N)N)NC(=O)[C@H](CC(C)C)NC(=O)CNC(=O)[C@H](CCC(=O)O)NC2=O [compound 726] | 32.4 nM | – | – |
| CCCC[C@@H]1NC(=O)[C@H](Cc2c[nH]c3ccccc23)NC(=O)[C@H](CCCCN)NC(=O)[C@H](CCC(N)=O)NC(=O)[C@@H](NC(=O)[C@H](Cc2ccc(O)cc2)NC(=O)[C@@H](N)CC#N)CSSC[C@@H]2NC(=O)[C@@H]3CSSC[C@@H](C(=O)N[C@@H](CCCNC(=N)N)C(=O)N[C@@H](CCCCN)C(=O)N[C@@H](CCC(=O)O)C(=O)N[C@H](C(N)=O)[C@@H](C)CC)NC(=O)[C@H](Cc4c[nH]c5ccccc45)NC(=O)[C@H](CC(C)C)NC(=O)[C@H](CCCCN)NC(=O)[C@H](CSSC[C@H](NC(=O)[C@H]([C@@H](C)O)NC(=O)[C@H](Cc4c[nH]c5ccccc45)NC1=O)C(=O)N[C@@H](CC(=O)O)C(=O)N[C@@H](CO)C(=O)N[C@@H](CCCCN)C(=O)N[C@@H](CCCNC(=N)N)C(=O)N[C@@H](C)C(=O)N3)NC(=O)[C@H](CCCNC(=N)N)NC(=O)[C@H](CC(C)C)NC(=O)CNC(=O)[C@H](Cc1cn(CCCCCCCCCCCCCCC(=O)O)nn1)NC2=O [compound 895] | – | – | IC50: 260 nM |
| CCCC[C@@H]1NC(=O)[C@H](Cc2c[nH]c3ccccc23)NC(=O)[C@H](CCCCN)NC(=O)[C@H](CCC(N)=O)NC(=O)[C@@H](NC(=O)[C@H](Cc2ccc(O)cc2)NC(=O)[C@@H](N)CC(C)C)CSSC[C@@H]2NC(=O)[C@@H]3CSSC[C@@H](C(=O)N[C@@H](CCCNC(=N)N)C(=O)N[C@@H](CCCCN)C(=O)N[C@@H](CCC(=O)O)C(=O)N[C@H](C(N)=O)[C@@H](C)CC)NC(=O)[C@H](Cc4c[nH]c5ccccc45)NC(=O)[C@H](CC(C)C)NC(=O)[C@H](CCCCN)NC(=O)[C@H](CSSC[C@H](NC(=O)[C@H]([C@@H](C)O)NC(=O)[C@H](Cc4c[nH]c5ccccc45)NC1=O)C(=O)N[C@@H](CC(=O)O)C(=O)N[C@@H](CO)C(=O)N[C@@H](CCCCN)C(=O)N[C@@H](CCCNC(=N)N)C(=O)N[C@@H](C)C(=O)N3)NC(=O)[C@H](CCCNC(=N)N)NC(=O)[C@H](CC(C)C)NC(=O)CNC(=O)[C@H](CCCCNC(=O)CCOCCOCCOCCOCCOCCOCCOCCOCCOCCOCCOCCOCCN)NC2=O [compound 462] | – | 20 | – |
| C#CC[C@H](N)C(=O)N[C@@H](Cc1ccc(O)cc1)C(=O)N[C@H]1CSSC[C@@H]2NC(=O)[C@@H]3CSSC[C@@H](C(=O)N[C@@H](CCCNC(=N)N)C(=O)N[C@@H](CCCCN)C(=O)NCC(=O)N[C@H](C(N)=O)[C@@H](C)CC)NC(=O)[C@H](Cc4c[nH]c5ccccc45)NC(=O)[C@H](CC(C)C)NC(=O)[C@H](CCCCN)NC(=O)[C@H](CSSC[C@H](NC(=O)[C@H]([C@@H](C)O)NC(=O)[C@H](Cc4c[nH]c5ccccc45)NC(=O)[C@H](CCCC)NC(=O)[C@H](Cc4c[nH]c5ccccc45)NC(=O)[C@H](CCCCN)NC(=O)[C@H](CCC(N)=O)NC1=O)C(=O)N[C@@H](CC(=O)O)C(=O)N[C@@H](CO)C(=O)N[C@@H](CCCCN)C(=O)N[C@@H](CCCNC(=N)N)C(=O)N[C@@H](C)C(=O)N3)NC(=O)[C@H](CCCNC(=N)N)NC(=O)[C@H](CC(C)C)NC(=O)CNC(=O)[C@H](CCC(=O)O)NC2=O [compound 651] | 3.14 nM | – | – |
| CCCC[C@@H]1NC(=O)[C@H](Cc2c[nH]c3ccccc23)NC(=O)[C@H](CCCCN)NC(=O)[C@H](CCC(N)=O)NC(=O)[C@@H](NC(=O)[C@H](Cc2ccc(O)cc2)NC(=O)[C@@H](N)CC#N)CSSC[C@@H]2NC(=O)[C@@H]3CSSC[C@@H](C(=O)N[C@@H](CCCNC(=N)N)C(=O)N[C@@H](CCCCN)C(=O)N[C@@H](CCC(=O)O)C(=O)N[C@H](C(N)=O)[C@@H](C)CC)NC(=O)[C@H](Cc4c[nH]c5ccccc45)NC(=O)[C@H](CC(C)C)NC(=O)[C@H](CCCCN)NC(=O)[C@H](CSSC[C@H](NC(=O)[C@H]([C@@H](C)O)NC(=O)[C@H](Cc4c[nH]c5ccccc45)NC1=O)C(=O)N[C@@H](CC(=O)O)C(=O)N[C@@H](CO)C(=O)N[C@@H](CCCCN)C(=O)N[C@@H](CCCNC(=N)N)C(=O)N[C@@H](C)C(=O)N3)NC(=O)[C@H](CCCNC(=N)N)NC(=O)[C@H](CC(C)C)NC(=O)CNC(=O)[C@H](CCCCNC(=O)CCOCCOCCOCCOCCOCCOCCOCCOCCOCCOCCOCCOCCN)NC2=O [compound 456] | – | 68 | Nav1.5/Nav1.7: 967 |
| CCCC[C@@H]1NC(=O)[C@H](Cc2c[nH]c3ccccc23)NC(=O)[C@H](CCCCN)NC(=O)[C@H](CCC(N)=O)NC(=O)[C@@H](NC(=O)[C@H](Cc2ccc(O)cc2)NC(=O)[C@@H](N)CC#N)CSSC[C@@H]2NC(=O)[C@@H]3CSSC[C@@H](C(=O)N[C@@H](CCCNC(=N)N)C(=O)N[C@@H](CCCCN)C(=O)N[C@@H](CCC(=O)O)C(=O)N[C@H](C(N)=O)[C@@H](C)CC)NC(=O)[C@H](Cc4c[nH]c5ccccc45)NC(=O)[C@H](CC(C)C)NC(=O)[C@H](CCCCN)NC(=O)[C@H](CSSC[C@H](NC(=O)[C@H]([C@@H](C)O)NC(=O)[C@H](Cc4c[nH]c5ccccc45)NC1=O)C(=O)N[C@@H](CC(=O)O)C(=O)N[C@@H](CO)C(=O)N[C@@H](CCCCNC(=O)CCOCCOCCOCCOCCOCCOCCOCCOCCOCCOCCOCCOCCN)C(=O)N[C@@H](CCCNC(=N)N)C(=O)N[C@@H](C)C(=O)N3)NC(=O)[C@H](CCCNC(=N)N)NC(=O)[C@H](CC(C)C)NC(=O)CNC(=O)[C@H](CCC(=O)O)NC2=O [compound 566] | – | 103 | – |
| CSCC[C@@H]1NC(=O)[C@H](Cc2c[nH]c3ccccc23)NC(=O)[C@H](CCCCN)NC(=O)[C@H](CCC(N)=O)NC(=O)[C@@H](NC(=O)[C@@H](N)Cc2ccc(O)cc2)CSSC[C@@H]2NC(=O)[C@@H]3CSSC[C@@H](C(=O)N[C@@H](CCCNC(=N)N)C(=O)N[C@@H](CCCCN)C(=O)N[C@@H](Cc4ccc(O)cc4)C(=O)N[C@@H](CC(C)C)C(N)=O)NC(=O)[C@H](Cc4c[nH]c5ccccc45)NC(=O)[C@H](CC(C)C)NC(=O)[C@H](CCCCN)NC(=O)[C@H](CSSC[C@H](NC(=O)[C@H]([C@@H](C)O)NC(=O)[C@H](Cc4c[nH]c5ccccc45)NC1=O)C(=O)N[C@@H](CC(=O)O)C(=O)N[C@@H](CO)C(=O)N[C@@H](CCCCN)C(=O)N[C@@H](CCCNC(=N)N)C(=O)N[C@@H](C)C(=O)N3)NC(=O)[C@H](CCC(=O)O)NC(=O)[C@H](CC(C)C)NC(=O)CNC(=O)[C@H](CCC(=O)O)NC2=O [compound 238] | – | 241 | Nav1.5/Nav1.7: 2817 |
| C#CC[C@H](N)C(=O)N[C@@H](Cc1ccc(O)cc1)C(=O)N[C@H]1CSSC[C@@H]2NC(=O)[C@@H]3CSSC[C@@H](C(=O)N[C@@H](CCCNC(=N)N)C(=O)N[C@@H](CCCCN)C(=O)N[C@H](C(=O)N[C@H](C(N)=O)[C@@H](C)CC)[C@@H](C)CC)NC(=O)[C@H](Cc4c[nH]c5ccccc45)NC(=O)[C@H](CC(C)C)NC(=O)[C@H](CCCCN)NC(=O)[C@H](CSSC[C@H](NC(=O)[C@H]([C@@H](C)O)NC(=O)[C@H](Cc4c[nH]c5ccccc45)NC(=O)[C@H](CCCC)NC(=O)[C@H](Cc4c[nH]c5ccccc45)NC(=O)[C@H](CCCCN)NC(=O)[C@H](CCC(N)=O)NC1=O)C(=O)N[C@@H](CC(=O)O)C(=O)N[C@@H](CO)C(=O)N[C@@H](CCCCN)C(=O)N[C@@H](CCCNC(=N)N)C(=O)N[C@@H](C)C(=O)N3)NC(=O)[C@H](Cc1ccc(O)cc1)NC(=O)[C@H](CC(C)C)NC(=O)CNC(=O)[C@H](CCC(=O)O)NC2=O [compound 682] | 5.98 nM | – | – |
| CCCC[C@@H]1NC(=O)[C@H](Cc2c[nH]c3ccccc23)NC(=O)[C@H](CCCCN)NC(=O)[C@H](CCC(N)=O)NC(=O)[C@@H](NC(=O)[C@H](Cc2ccc(O)cc2)NC(=O)[C@H](N)CC(C)C)CSSC[C@@H]2NC(=O)[C@@H]3CSSC[C@@H](C(=O)N[C@@H](CCCNC(=N)N)C(=O)N[C@@H](CCCCN)C(=O)N[C@@H](CCC(=O)O)C(=O)N[C@H](C(N)=O)[C@@H](C)CC)NC(=O)[C@H](Cc4c[nH]c5ccccc45)NC(=O)[C@H](CC(C)C)NC(=O)[C@H](CCCCN)NC(=O)[C@H](CSSC[C@H](NC(=O)[C@H]([C@@H](C)O)NC(=O)[C@H](Cc4c[nH]c5ccccc45)NC1=O)C(=O)N[C@@H](CC(=O)O)C(=O)N[C@@H](CO)C(=O)N[C@@H](CCCCN)C(=O)N[C@@H](CCCNC(=N)N)C(=O)N[C@@H](C)C(=O)N3)NC(=O)[C@H](CCCNC(=N)N)NC(=O)[C@H](CC(C)C)NC(=O)CNC(=O)[C@H](CCCCNC(=O)CCOCCOCCOCCOCCOCCOCCOCCOCCOCCOCCOCCOCCN)NC2=O [compound 464] | – | 18 | – |
| C#CC[C@@H]1NC(=O)[C@@H]2CSSC[C@H](NC(=O)[C@H](Cc3ccc(O)cc3)NC(=O)[C@@H](N)CC#N)C(=O)N[C@@H](CCC(N)=O)C(=O)N[C@@H](CCCCN)C(=O)N[C@@H](Cc3c[nH]c4ccccc34)C(=O)N[C@@H](CCCC)C(=O)N[C@@H](Cc3c[nH]c4ccccc34)C(=O)N[C@@H]([C@@H](C)O)C(=O)N[C@H]3CSSC[C@H](NC(=O)[C@H](CCCNC(=N)N)NC(=O)[C@H](CC(C)C)NC(=O)CNC1=O)C(=O)N[C@@H](CCCCN)C(=O)N[C@@H](CC(C)C)C(=O)N[C@@H](Cc1c[nH]c4cc(C)ccc14)C(=O)N[C@H](C(=O)N[C@@H](CCCNC(=N)N)C(=O)N[C@@H](CCCCN)C(=O)N[C@@H](CCC(=O)O)C(=O)N[C@H](C(N)=O)[C@@H](C)CC)CSSC[C@H](NC(=O)[C@H](C)NC(=O)[C@H](CCCNC(=N)N)NC(=O)[C@H](CCCCN)NC(=O)[C@H](CO)NC(=O)[C@H](CC(=O)O)NC3=O)C(=O)N2 [compound 874] | 14 nM | – | – |
